Values joined by “and” are separate entries in the source; they are usually repeats but may differ in a detail not shown here. Identical values can stand only once.
Test system: collagen-induced arthritis
Assay: Collagen-induced arthritis (CIA) model: clinical scores and paw volume; as to Animal paw volume percent change (%): reference of the scale not given here; as to Average animal paw volume percent change (%): reference of the scale not given here
Assay type: in vivo, Lewis rats
Details: for Animal paw volume percent change (%) / Animal paw volume / clinical score left forelimb / clinical score right forelimb / clinical score right hind limb / clinical score, score (all limbs) / clinical score left hind limb: individual animals; for Average detailed clinical score, left forelimb / Average detailed clinical score, left hind limb / Average detailed clinical score, right forelimb / Average detailed clinical score, right hind limb / Average detailed clinical score, score / Average overall clinical score / Overall Clinical Score / Animal paw volume: Day 21; for Overall Clinical Score: individual animals 1-8
[1] = Day 21, R paw, group 7 CIA + Compound A 10 mg/kg
[2] = group 5 CIA + Compound A 1 mg/kg, 2nd section of table, 1st day (between Day 12 and Day 18)
[3] = group 5 CIA + Compound A 1 mg/kg, 2nd section of table, 1st day (between Day 12 and Day 18), 1 mg/kg
[4] = group 5 CIA + Compound A 1 mg/kg, 2nd section of table, 2nd day (between Day 12 and Day 18)
[5] = group 5 CIA + Compound A 1 mg/kg, 2nd section of table, 2nd day (between Day 12 and Day 18), 1 mg/kg
[6] = group 5 CIA + Compound A 1 mg/kg, 2nd section of table, 3rd day (between Day 12 and Day 18)
[7] = group 5 CIA + Compound A 1 mg/kg, 2nd section of table, 3rd day (between Day 12 and Day 18), 1 mg/kg
[8] = group 5 CIA + Compound A 1 mg/kg, Day 18
[9] = group 5 CIA + Compound A 1 mg/kg, Day 18, 1 mg/kg
[10] = group 5 CIA + Compound A 1 mg/kg, Day 19
[11] = group 5 CIA + Compound A 1 mg/kg, Day 19, 1 mg/kg
[12] = group 5 CIA + Compound A 1 mg/kg, Day 20
[13] = group 5 CIA + Compound A 1 mg/kg, Day 20, 1 mg/kg
[14] = group 6 CIA + Compound A 3 mg/kg, 2nd section of table, 1st day (between Day 12 and Day 18)
[15] = group 6 CIA + Compound A 3 mg/kg, 2nd section of table, 2nd day (between Day 12 and Day 18)
[16] = group 6 CIA + Compound A 3 mg/kg, 2nd section of table, 2nd day (between Day 12 and Day 18), 3 mg/kg
[17] = group 6 CIA + Compound A 3 mg/kg, 2nd section of table, 3rd day (between Day 12 and Day 18)
[18] = group 6 CIA + Compound A 3 mg/kg, 2nd section of table, 3rd day (between Day 12 and Day 18), 3 mg/kg
[19] = group 6 CIA + Compound A 3 mg/kg, Day 18
[20] = group 6 CIA + Compound A 3 mg/kg, Day 18, 3 mg/kg
[21] = group 6 CIA + Compound A 3 mg/kg, Day 19
[22] = group 6 CIA + Compound A 3 mg/kg, Day 19, 3 mg/kg
[23] = group 6 CIA + Compound A 3 mg/kg, Day 20
[24] = group 6 CIA + Compound A 3 mg/kg, Day 20, 3 mg/kg
[25] = group 7 CIA + Compound A 10 mg/kg, 2nd section of table, 1st day (between Day 12 and Day 18), 10 mg/kg
[26] = group 7 CIA + Compound A 10 mg/kg, 2nd section of table, 2nd day (between Day 12 and Day 18)
[27] = group 7 CIA + Compound A 10 mg/kg, 2nd section of table, 2nd day (between Day 12 and Day 18), 10 mg/kg
[28] = group 7 CIA + Compound A 10 mg/kg, 2nd section of table, 3rd day (between Day 12 and Day 18)
[29] = group 7 CIA + Compound A 10 mg/kg, 2nd section of table, 3rd day (between Day 12 and Day 18), 10 mg/kg

Cn1cc(-c2ccccc2)c(-c2cn(C)c(=O)c3[nH]c(-c4cnn(C(F)(F)F)c4)cc23)cc1=O [Compound A, 6-methyl-4-(1-methyl-2-oxo-5-phenyl-1,2-dihydropyridin-4-yl)-2-(1-(trifluoromethyl)-1H-pyrazol-4-yl)-1,6-dihydro-7H-pyrrolo[2,3-c]pyridin-7-one]
Average animal paw volume percent change (%) (Day 21, R paw, group 6 CIA + Compound A 3 mg/kg): 38.15% | Average animal paw volume [1]: 1.81 mL | Average animal paw volume percent change (%) [1]: 38.27% | Animal paw volume percent change (%) (Day 21, R paw, group 5 CIA + Compound A 1 mg/kg, 1 mg/kg): 73.56% and 88.03% and 50.91% and 70.19% and 18.45% and 55.51% and 49.81% | Animal paw volume percent change (%) (Day 21, R paw, group 6 CIA + Compound A 3 mg/kg, 3 mg/kg): 64.91% and 27.24% and 46.04% and 29.74% and 60.23% | Average detailed clinical score, left forelimb (CIA + Compound A 1 mg/kg): 1.00 | Average detailed clinical score, left hind limb (CIA + Compound A 1 mg/kg): 4.00 | Average detailed clinical score, right forelimb (CIA + Compound A 1 mg/kg): 1.00 | Average detailed clinical score, right hind limb (CIA + Compound A 1 mg/kg): 3.75 | Average detailed clinical score, score (CIA + Compound A 1 mg/kg): 9.75 | Average overall clinical score (CIA + Compound A 1 mg/kg): 5 | Overall Clinical Score (CIA + Compound A 1 mg/kg, 1 mg/kg): 0 and 6 (5×) and 8 and 2 | Average detailed clinical score, left forelimb (CIA + Compound A 3 mg/kg): 0.00 | Average detailed clinical score, left hind limb (CIA + Compound A 3 mg/kg): 2.50 | Average detailed clinical score, right forelimb (CIA + Compound A 3 mg/kg): 1.25 | Average detailed clinical score, right hind limb (CIA + Compound A 3 mg/kg): 2.75 | Average detailed clinical score, score (CIA + Compound A 3 mg/kg): 6.50 | Average overall clinical score (CIA + Compound A 3 mg/kg): 4 | Overall Clinical Score (CIA + Compound A 3 mg/kg, 3 mg/kg): 5 (2×) and 3 (2×) | Average detailed clinical score, left forelimb (CIA + Compound A 10 mg/kg): 0.00 | Average detailed clinical score, left hind limb (CIA + Compound A 10 mg/kg): 1.88 | Average detailed clinical score, right forelimb (CIA + Compound A 10 mg/kg): 0.13 | Average detailed clinical score, right hind limb (CIA + Compound A 10 mg/kg): 1.63 | Average detailed clinical score, score (CIA + Compound A 10 mg/kg): 3.63 | Average overall clinical score (CIA + Compound A 10 mg/kg): 4 | Animal paw volume (L paw, Group 5 (CIA + Compound A 1 mg/kg), 1 mg/kg): 2.05 mL and 2.45 mL and 2.08 mL (2×) and 2.27 mL and 1.64 mL and 2.15 mL | Animal paw volume (L paw, Group 6 (CIA + Compound A 3 mg/kg), 3 mg/kg): 1.92 mL and 2.19 mL and 1.64 mL and 1.52 mL and 1.80 mL | Animal paw volume (R paw, Group 5 (CIA + Compound A 1 mg/kg), 1 mg/kg): 2.27 mL and 2.44 mL and 2.08 mL and 2.26 mL and 1.61 mL and 2.05 mL and 1.99 mL | Animal paw volume (R paw, Group 6 (CIA + Compound A 3 mg/kg), 3 mg/kg): 2.19 mL and 1.64 mL and 1.94 mL and 1.75 mL and 2.08 mL | clinical score left forelimb [2]: 0 | clinical score right forelimb [2]: 0 | clinical score right hind limb [3]: 0 (6×) and 1 (2×) | clinical score, score (all limbs) [3]: 0 (6×) and 2 and 1 | clinical score left forelimb [4]: 0 | clinical score right forelimb [4]: 0 | clinical score left hind limb [5]: 0 (5×) and 2 and 1 (2×) | clinical score right hind limb [5]: 0 (5×) and 1 (3×) | clinical score, score (all limbs) [5]: 0 (3×) and 2 (2×) and 1 (3×) | clinical score left forelimb [6]: 0 | clinical score right forelimb [6]: 0 | clinical score left hind limb [7]: 0 (3×) and 2 (3×) and 1 (2×) | clinical score right hind limb [7]: 0 (3×) and 2 (2×) and 1 (3×) | clinical score, score (all limbs) [7]: 0 (3×) and 4 and 3 (3×) and 2 | clinical score left forelimb [8]: 0 | clinical score right forelimb [8]: 0 | clinical score left hind limb [9]: 0 and 2 (3×) and 4 and 3 (2×) and 1 | clinical score right hind limb [9]: 0 and 3 (4×) and 2 (2×) and 1 | clinical score, score (all limbs) [9]: 0 and 5 (3×) and 7 and 6 and 2 and 4 | clinical score left forelimb [10]: 0 | clinical score right forelimb [10]: 0 | clinical score left hind limb [11]: 0 and 3 (5×) and 4 and 1 | clinical score right hind limb [11]: 0 and 3 (5×) and 4 and 2 | clinical score, score (all limbs) [11]: 0 and 6 (5×) and 8 and 3 | clinical score left forelimb [12]: 0 | clinical score right forelimb [12]: 0 | clinical score left hind limb [13]: 0 and 3 (5×) and 4 and 1 | clinical score right hind limb [13]: 0 and 3 (5×) and 4 and 1 | clinical score, score (all limbs) [13]: 0 and 6 (5×) and 8 and 2 | clinical score left forelimb [14]: 0 | clinical score right forelimb [14]: 0 | clinical score left forelimb [15]: 0 | clinical score right forelimb [15]: 0 | clinical score left hind limb [16]: 0 (6×) and 1 (2×) | clinical score, score (all limbs) [16]: 0 (6×) and 1 and 3 | clinical score left forelimb [17]: 0 | clinical score right forelimb [17]: 0 | clinical score left hind limb [18]: 0 (4×) and 1 (4×) | clinical score right hind limb [18]: 0 (5×) and 2 and 1 (2×) | clinical score, score (all limbs) [18]: 0 (4×) and 1 and 3 and 2 (2×) | clinical score left forelimb [19]: 0 | clinical score right forelimb [19]: 0 | clinical score left hind limb [20]: 2 | clinical score right hind limb [20]: 2 | clinical score, score (all limbs) [20]: 4 | clinical score left forelimb [21]: 0 | clinical score right forelimb [21]: 0 | clinical score left hind limb [22]: 2 | clinical score right hind limb [22]: 3 and 2 | clinical score, score (all limbs) [22]: 5 and 4 | clinical score left forelimb [23]: 0 | clinical score right forelimb [23]: 0 | clinical score left hind limb [24]: 2 and 3 | clinical score right hind limb [24]: 3 | clinical score, score (all limbs) [24]: 5 | clinical score left forelimb (group 7 CIA + Compound A 10 mg/kg, 2nd section of table, 1st day (between Day 12 and Day 18)): 0 | clinical score left hind limb [25]: 0 (7×) and 1 | clinical score right hind limb [25]: 0 (6×) and 1 (2×) | clinical score, score (all limbs) [25]: 0 (6×) and 1 and 3 | clinical score left forelimb [26]: 0 | clinical score right forelimb [26]: 0 | clinical score left hind limb [27]: 0 (6×) and 1 (2×) | clinical score right hind limb [27]: 0 (6×) and 2 and 1 | clinical score, score (all limbs) [27]: 0 (5×) and 1 and 2 (2×) | clinical score left forelimb [28]: 0 | clinical score right forelimb [28]: 0 | clinical score left hind limb [29]: 1 (2×) and 0 (4×) and 2 (2×) | clinical score right hind limb [29]: 1 (2×) and 0 (5×) and 2 | clinical score, score (all limbs) [29]: 2 and 0 (4×) and 1 and 4 and 3
